Data as given in the supplement of paper PMC10307832.

How the values were obtained:
Assay in all cases: relative viability (nuclei count vs DMSO), 5 days (fraction); higher = more cells survive
[1] = compound: N[C@@H]1CCCN(c2c(/C=C3\SC(=O)NC3=O)cccc2-c2ccccc2)C1 [AZD1208] + O=C(c1cc(Cc2n[nH]c(=O)c3ccccc23)ccc1F)N1CCN(C(=O)C2CC2)CC1 [Olaparib] (partner 8 µM)
How it was run: (§1)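 Lung cancer cell lines in 1536-well plates were dosed by pin tool the day after seeding, either with one drug alone or with a fixed anchor-drug dose plus five library-drug doses (not always all listed) in √10 steps. After 5 days, cells were fixed and their nuclei stained in one step (final 0.05% Triton X-100, 1% formaldehyde, 1 ug/ml Hoechst), then counted on 4× images. Relative viability is the nuclei count in treated wells divided by that in vehicle wells. Values are medians of duplicate plates.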

[2] = compound: N[C@@H]1CCCN(c2c(/C=C3\SC(=O)NC3=O)cccc2-c2ccccc2)C1 [AZD1208] + CS(=O)(=O)N1CCN(Cc2cc3nc(-c4cccc5[nH]ncc45)nc(N4CCOCC4)c3s2)CC1 [Pictilisib] (partner 1 µM)
How it was run: as §1

[3] = compound: CN1CCN(CC1)C2=CC(=C(C=C2)NC3=NC(=C(S3)C(=O)C4=C(C=CC=C4Cl)Cl)N)OC [XMD14-99] + CCNC(=O)c1noc(-c2cc(C(C)C)c(O)cc2O)c1-c1ccc(CN2CCOCC2)cc1 [Luminespib] (partner 0.01 µM)
How it was run: as §1

[4] = compound: CN1CCN(CC1)C2=CC(=C(C=C2)NC3=NC(=C(S3)C(=O)C4=C(C=CC=C4Cl)Cl)N)OC [XMD14-99] + CC(=O)Nc1cccc(-n2c(=O)n(C3CC3)c(=O)c3c(Nc4ccc(I)cc4F)n(C)c(=O)c(C)c32)c1 [Trametinib] (partner 0.02 µM)
How it was run: as §1

| Cell Line | relative viability ([1]; first compound 0.08 µM) | relative viability ([1]; first compound 0.253 µM) | relative viability ([1]; first compound 0.8 µM) | relative viability ([1]; first compound 2.53 µM) | relative viability ([1]; first compound 8 µM) | relative viability ([2]; first compound 0.08 µM) | relative viability ([2]; first compound 0.253 µM) | relative viability ([2]; first compound 0.8 µM) | relative viability ([2]; first compound 2.53 µM) | relative viability ([2]; first compound 8 µM) | relative viability ([3]; first compound 0.08 µM) | relative viability ([3]; first compound 0.8 µM) | relative viability ([3]; first compound 2.53 µM) | relative viability ([3]; first compound 8 µM) | relative viability ([4]; first compound 0.08 µM) | relative viability ([4]; first compound 0.8 µM) | relative viability ([4]; first compound 2.53 µM) | relative viability ([4]; first compound 8 µM) |
| --- | --- | --- | --- | --- | --- | --- | --- | --- | --- | --- | --- | --- | --- | --- | --- | --- | --- | --- |
| NCI-H2087 | 0.543 | 0.548 | 0.513 | 0.515 | 0.435 | 0.665 | 0.842 | 0.654 | 0.561 | 0.732 | 0.151 | 0.173 | 0.179 | 0.135 | 0.174 | 0.176 | 0.162 | 0.122 |
| NCI-H2126 | 0.944 | 0.917 | 0.759 | 0.912 | 0.828 | 0.437 | 0.476 | 0.436 | 0.424 | 0.441 | 0.966 | 0.827 | 0.873 | 0.595 | 0.545 | 0.569 | 0.621 | 0.56 |
| NCI-H2170 | 0.683 | 0.697 | 0.55 | 0.552 | 0.385 | 0.319 | 0.263 | 0.254 | 0.213 | 0.224 | 0.652 | 0.59 | 0.755 | 0.372 | 0.924 | 0.873 | 0.828 | 0.786 |
| NCI-H2228 | 0.557 | 0.754 | 0.584 | 0.527 | 0.673 | 0.207 | 0.328 | 0.381 | – | 0.285 | 0.147 | 0.19 | 0.153 | 0.104 | 0.612 | 0.534 | 0.431 | 0.209 |
| NCI-H2347 | 0.614 | 0.628 | 0.518 | 0.541 | 0.538 | 0.467 | 0.782 | 0.558 | 0.495 | 0.495 | 0.337 | 0.339 | 0.368 | 0.301 | 0.278 | 0.288 | 0.304 | 0.269 |
| NCI-H2405 | 0.806 | 0.837 | 0.813 | 0.813 | 0.891 | 0.394 | 0.397 | 0.333 | 0.373 | 0.385 | 0.659 | 0.767 | 0.861 | 0.475 | 0.641 | 0.751 | 0.626 | 0.575 |
| NCI-H3122 | 0.691 | 0.677 | 0.615 | 0.608 | 0.691 | 0.506 | 0.486 | 0.447 | 0.481 | 0.524 | 0.0829 | 0.0788 | 0.132 | 0.0985 | 0.261 | 0.22 | 0.269 | 0.22 |
| PC-3 [JPC-3] | 1.17 | 1.31 | 1.1 | 1.2 | 1.19 | 0.788 | 0.762 | 0.672 | 0.659 | 0.684 | 0.682 | 0.66 | 0.564 | 0.588 | 0.749 | 0.59 | 0.645 | 0.577 |
| PC-14 | 0.381 | 0.248 | 0.27 | 0.365 | 0.257 | 0.617 | 0.743 | 0.436 | 0.584 | 0.482 | 0.156 | 0.151 | 0.156 | 0.171 | 0.668 | 0.726 | 0.59 | 0.217 |
